Laboratory results from PubChem BioAssay (NCI).
Values joined by “and” are separate entries in the source; they are usually repeats but may differ in a detail not shown here. Equal values may be shown once.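 Five concentrations, 48 hours, 96-well plates. GI50 = concentration required for 50% inhibition of growth. TGI: concentration producing complete growth inhibition.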 Where a SMILES comes first, the peptide text is derived from it. [ ]: non-standard residue; d: D form. ΔPro = O=C(O)[CH]1C=CCN1

What was measured:
Experiment in all cases: NCI anticancer screen, dose series, 48 h
MDA-N = system: MDA-N
SK-MEL-2 melanoma = system: SK-MEL-2 melanoma
EKVX NSCLC = system: EKVX NSCLC
UACC-257 melanoma = system: UACC-257 melanoma
HCC-2998 colon = system: HCC-2998 colon
SR leukemia = system: SR leukemia
DU-145 prostate = system: DU-145 prostate
SNB-19 CNS = system: SNB-19 CNS
SF-295 CNS = system: SF-295 CNS
ACHN renal = system: ACHN renal
COLO 205 colon = system: COLO 205 colon
SK-OV-3 ovarian = system: SK-OV-3 ovarian
SK-MEL-28 melanoma = system: SK-MEL-28 melanoma
SW-620 colon = system: SW-620 colon

SMILES | TGI (MDA-N) [µM] | TGI (SK-MEL-2 melanoma) | TGI (EKVX NSCLC) [µM] | TGI (UACC-257 melanoma) [µM] | TGI (HCC-2998 colon) [µM] | TGI (SR leukemia) [µM] | TGI (DU-145 prostate) [µM] | TGI (SNB-19 CNS) [µM] | TGI (SF-295 CNS) [µM] | TGI (ACHN renal) [µM] | TGI (COLO 205 colon) [µM] | TGI (SK-OV-3 ovarian) [µM] | TGI (SK-MEL-28 melanoma) [µM] | TGI (SW-620 colon) [µM] | GI50 (SK-MEL-2 melanoma)
COC(=O)c1cc(CC2Cc3cc4c(cc3C2=O)CCC4)cc2c1CCC2 (stereo not given) | > 100 | > 100 µM | > 100 | > 100 | > 100 | > 100 | > 100 | > 100 | > 100 | > 100 | > 100 | > 100 | > 100 | > 100 | –
C=C1c2nc3ccccc3n2C=C(c2ccccc2)N1c1ccc(Cl)cc1 | > 100 | > 100 µM | 49.2 | > 100 | > 100 | > 100 | > 100 | > 100 | 49.2 | 38.4 | > 100 | > 86.7 | > 100 | > 100 | –
O=C(c1cscc1CCc1ccccc1)c1cscc1CCc1ccccc1 | > 100 | > 100 µM | > 100 | > 100 | > 100 | > 100 | > 100 | > 100 | > 100 | > 100 | > 100 | > 100 | > 100 | > 100 | –
CC(C)(C)OC(=O)N(O)[C@@H]1CC[C@H](n2cnc3c(N)ncnc32)C1 | > 100 | > 100 µM | > 100 | > 100 | > 100 | > 100 | > 100 | > 100 | > 100 | > 100 | > 100 | > 100 | > 100 | > 100 | –
CCCCN=NNc1cn(C2OC(CO)C(O)C2O)c(=O)[nH]c1=O (stereo not given) | > 100 | > 100 µM | > 100 | > 100 | > 100 | > 100 | > 100 | > 100 | > 100 | > 100 | > 100 | > 100 | > 100 | > 100 | –
C/C(=N\NC(=O)c1ccncc1)c1sc(-n2nc(-c3ccccc3)cc2-c2ccccc2)nc1C | > 100 | > 31.6 µM | > 100 | > 31.6 | > 31.6 | > 31.6 | > 31.6 | > 31.6 | > 31.6 | > 31.6 | > 100 | > 31.6 | > 31.6 | > 31.6 | –
C=C(C)C1CC[C@@](C)(O)[C@H](C#N)C1 (stereo not given in full) | > 100 | > 100 µM | > 100 | > 100 | > 100 | > 100 | > 100 | > 100 | > 100 | > 100 | > 100 | > 100 | > 100 | > 100 | –
CC(=O)OCC1OC(n2c(C)c(C(C)=O)c(-c3ccco3)c(C#N)c2=S)C(OC(C)=O)C(OC(C)=O)C1OC(C)=O (stereo not given) | > 100 | 98.4 µM and > 100 µM | > 100 | > 100 | > 100 | > 100 | > 100 | > 100 | > 100 | > 100 | > 100 | > 100 | > 100 | > 100 | 27.4 µM and 74.4 µM
CC(=O)OCC1(C)C(O)CCC2(C)C1CCC1CC3CC12CCC3(O)CO (stereo not given) | > 100 | > 100 µM | > 100 | > 100 | > 100 | > 29.4 | > 100 | > 100 | > 100 | > 100 | > 100 | > 100 | > 100 | > 100 | –
C[C@@H]1S[C@H](c2c(F)cccc2Cl)n2c1nc1ccccc12 | 21.5 | 29.3 µM | 56 | 38.5 | 26.5 | 67.7 | > 100 | 88.9 | 42 | > 100 | 23.6 | 55.9 | 26.5 | 27.2 | –
O=C(O)C1C=CCN1C(=O)C1C=CCN1C(=O)C1C=CCN1 (stereo not given) (H-[ΔPro]-[ΔPro]-[ΔPro]-OH; configuration not given here) | > 100 | > 100 µM | > 100 | > 100 | > 100 | > 100 | > 100 | > 100 | > 100 | > 100 | > 100 | > 100 | > 100 | > 100 | –
CSC1=NN(C(C)=O)C(C(OC(C)=O)C(OC(C)=O)C(OC(C)=O)C(COC(C)=O)OC(C)=O)S1 (stereo not given) | > 100 | > 100 µM | > 100 | > 100 | > 100 | > 100 | > 100 | > 100 | > 100 | > 100 | > 100 | > 100 | > 100 | > 100 | –
COC(=O)[C@@H]1CN(C(=O)CCc2ccccc2)C(=O)N1 | > 100 | > 100 µM | > 100 | > 100 | > 100 | > 100 | > 100 | > 100 | > 100 | > 100 | > 100 | > 100 | > 100 | > 100 | –
CCCCCCCCOC(=O)C12Oc3ccc(-c4ccc5c(c4O)C(O)=C4C(=O)CC(C)C(O)C4(C(=O)OCCCCCCCC)O5)c(O)c3C(O)=C1C(=O)CC(C)C2O (stereo not given) | > 100 | 47.4 µM | > 100 | > 100 | > 100 | 20.3 | > 100 | 36.8 | 48 | 25.5 | 65.3 | > 100 | > 100 | > 100 | –
C=C(Cl)/C(=C\Cl)CCC(Cl)C(C)C (stereo not given) (tested in a mixture with another compound) | 30.4 | 27.1 µM | 33.3 | 27.2 | 32.7 | > 100 | 31.9 | 31.5 | 41.2 | 30.4 | 54.6 | 44.5 | 34.8 | 7.5 | –
CN1CCN(c2cc3nc(-c4ccc(Cl)cc4)[nH]c3cc2F)CC1 | 50.4 | 34.5 µM | 72.3 | 26.2 | 16.7 | > 100 | 83.3 | > 81.8 | 28.8 | 29.8 | 51.1 | 59.5 | 30.8 | > 64.4 | –

SMILES | TGI (MDA-N) [µM] | TGI (SK-MEL-2 melanoma) | TGI (EKVX NSCLC) [µM] | TGI (UACC-257 melanoma) [µM] | TGI (HCC-2998 colon) [µM] | TGI (SR leukemia) [µM] | TGI (DU-145 prostate) [µM] | TGI (SNB-19 CNS) [µM] | TGI (SF-295 CNS) [µM] | TGI (ACHN renal) [µM] | TGI (COLO 205 colon) [µM] | TGI (SK-OV-3 ovarian) [µM] | TGI (SK-MEL-28 melanoma) [µM] | TGI (SW-620 colon) [µM] | GI50 (SK-MEL-2 melanoma)
CC1(C)CC[C@]2(C(=O)O)CC[C@]3(C)C(=CCC4=C5C[C@H](O)[C@H](O)[C@@](C)(CO)[C@@]5(C)CC[C@]43C)[C@@H]2C1 | > 100 | > 100 µM | > 100 | > 100 | 64.1 | > 100 | > 100 | > 100 | > 100 | > 100 | 30 | > 100 | > 100 | > 100 | –
CC1=NN(c2ccc(S(=O)(=O)O)cc2)C2(C1)C(Cl)C(=O)N2c1nc2ccccc2s1 (stereo not given) | > 100 | > 100 µM | > 100 | > 100 | > 100 | > 100 | > 100 | > 100 | > 100 | > 100 | > 100 | > 100 | > 100 | > 100 | –
CCc1n[nH]c(=O)n1CC | > 100 | > 100 µM | > 100 | > 100 | > 100 | > 100 | > 100 | > 100 | > 100 | > 100 | > 100 | > 100 | > 100 | > 100 | –
CN(C)c1ccc(C=Nc2ccc(-c3nc4ccccc4s3)cc2)cc1 | > 100 | 58.9 µM | > 100 | 82.8 | 44.5 | > 100 | > 100 | > 100 | 29.9 | 69 | 62.3 | > 100 | > 100 | > 100 | –
C=C1CN=C(Nc2ccc(Cl)cc2)S1 | > 100 | > 100 µM | > 100 | > 100 | > 100 | > 100 | > 100 | > 100 | > 100 | > 100 | > 100 | > 100 | > 100 | > 100 | –
COC(=O)[C@@H]1C[C@@H](O)CN1C(=O)c1ccc([N+](=O)[O-])cc1[N+](=O)[O-] | > 100 | > 100 µM | > 100 | > 100 | > 100 | > 100 | > 100 | > 100 | > 100 | > 100 | > 100 | > 100 | > 100 | > 100 | –
CCN(CC)C1Oc2cc3c(cc2C(c2cc(OC)c(O)c(OC)c2)C1C)OCO3 (stereo not given) | 4.8 | > 95.7 µM | > 75.6 | > 100 | 21.4 | 32.7 | > 89.3 | 44.2 | 24.1 | > 100 | 31.8 | 66.3 | 44.2 | 20.9 | –
Cc1cc(N2CCOCC2)nc2ccc(Cc3ccc4nc(N5CCOCC5)cc(C)c4c3)cc12 | > 100 | > 100 µM | > 100 | > 100 | 34.7 | > 100 | > 100 | > 100 | > 100 | > 100 | 26.8 | > 100 | > 100 | > 100 | –
O=S1SC(=S)C2C=CC=NC21 (stereo not given) | 27.8 | 36.6 µM | 26.1 | 29 | 28.8 | 77.7 | 31.4 | 87.9 | 62.3 | 32.4 | 40.3 | > 100 | > 100 | > 100 | –
CC(=O)Nc1cc(Cl)cc(Cl)c1O | > 100 | > 100 µM | > 100 | > 100 | > 100 | > 100 | > 100 | > 100 | > 100 | > 100 | > 100 | > 100 | > 100 | > 100 | –
Cn1c(=O)c2ccccc2[n+]2c(-c3cccc([N+](=O)[O-])c3)csc12 | > 100 | > 100 µM | > 100 | > 100 | > 100 | 71.5 | > 100 | > 100 | > 100 | > 100 | > 100 | > 100 | > 100 | > 100 | –
CCCC(=O)OCC1OC(n2cc(F)c(=O)[nH]c2=O)CC1O (stereo not given) | > 10 | > 10 µM | > 10 | > 10 | > 2.97 | > 10 | > 10 | > 10 | > 3.02 | > 10 | > 10 | > 10 | > 10 | > 10 | –
O[C@@]1(C#Cc2ccc3c(c2)OCO3)CCC[C@H]1NCc1ccccc1 | 32.5 | 31.9 µM | > 100 | 63.9 | 32.2 | 50.7 | > 100 | 68.4 | 40.3 | > 100 | 37.4 | > 100 | 38.1 | > 100 | –
COc1ccc(N2C(=O)C(Cl)C2c2cc3cc(Br)ccc3nc2Cl)cc1 (stereo not given) | 15.7 | 11.1 µM | 9.86 | 11.9 | 7.52 | 6.82 | 21.2 | > 25 | > 25 | 9.64 | 9.11 | > 25 | > 25 | 16.2 | –
S=C1NC2=C(CSC/C2=C\c2ccc(Cl)cc2)C(c2ccc(Cl)cc2)N1 (stereo not given) | > 100 | > 100 µM | > 100 | > 100 | 77.6 | > 100 | > 100 | > 100 | > 100 | > 100 | 32.7 | > 100 | > 100 | > 100 | –
